Test results published in PubChem BioAssay AID1626 (SRMLSC, 2009).

Tested on: M. tuberculosis H37Rv growth inhibition
Assay: M. tuberculosis H37Rv growth inhibitors, H37Rv strain (AID 1626)
Conditions: for IC90: measured here: IC90 against H37Rv; for CC50: measured here: Vero cell cytotoxicity

| Structure (SMILES) | IC50 [µM] | IC90 [µM] | CC50 [µM] |
| --- | --- | --- | --- |
| CN1CCN(c2ccccc2NC(=O)c2cc3c(s2)-c2ccccc2OC3)CC1 | 8.62 | 17.7 | 10.7 |
| CCc1nc2sc3ccccc3c(=O)c2c(=O)n1Cc1ccc(OC)cc1 | 6.25 | 8.28 | > 40 |
| O=C(CSc1nc2cc(Cl)ccc2o1)NCCc1ccccc1 | < 0.391 | 1.09 |  |
| CCOC(=O)CSc1nnc(-c2cc(OC)c(OC)c(OC)c2)o1 | 1.62 | 4.38 |  |
| C[C@H](NC(=O)c1[nH]cnc1C(=O)Nc1ccccc1)C(=O)OC(C)(C)C | 1.68 | 5.62 | > 40 |
| COc1ccc(Cn2c(SCc3cc(C)ccc3C)nc3cc(OC)c(OC)cc3c2=N)cc1 | 2.59 | 2.83 | 7.51 |
| CCS(=O)(=O)Nc1cccc(-c2cc(-c3ccccc3)c3cc(C)ccc3n2)c1 | 5.97 | 11.1 | > 40 |
| COc1ccc(C2/C=C\CN(C(=O)Nc3ccc(C(F)(F)F)cc3)CC(=O)N2Cc2ccc(F)cc2)cc1 (centres undefined) | 5.74 | 6.73 | 16.7 |
| NC1=NC[C@H](Cc2ccccc2)N1CCCCC1CCCCC1 | 10 | 13.6 | > 40 |
| O=C(/C=C/c1ccc(-c2ccc(F)cc2)o1)N1CCCC1 | 14 | > 100 |  |
| CCOc1ccc2nc(NC(=O)c3cnc(C)cn3)sc2c1 | 4.76 | > 100 | 40 |
| COc1ccc(-c2cc(C(F)(F)F)n3ncc(C(=O)N4CCCCC4c4cccnc4)c3n2)cc1 (centres undefined) |  | > 100 |  |
| CCOc1ccc(-c2nnc(SCC(=O)Nc3cc(C)on3)o2)cc1 | 1.63 | 1.95 | > 40 |
| O=C(NCc1ccco1)c1cc2n(n1)C(C(F)(F)F)CC(c1ccc(Cl)c(Cl)c1)N2 (centres undefined) |  | > 100 | > 40 |
| Cc1cnc(C(=O)Nc2nnc(SCc3c(Cl)cccc3Cl)s2)cn1 | 8.19 | > 100 | 35.5 |
| O=C(/C=C/c1ccc(Cl)c([N+](=O)[O-])c1)c1cccnc1 | 1.18 | 2.47 | 38.8 |
| NC1=NC[C@H](Cc2ccc(O)cc2)N1CCC12CC3CC(CC(C3)C1)C2 | 5.85 | 9.05 |  |

| Structure (SMILES) | IC50 [µM] | IC90 [µM] | CC50 [µM] |
| --- | --- | --- | --- |
| Cc1cc(C)c2c(n1)sc1c(N3CCCCC3)ncnc12 | 16.7 | > 100 |  |
| COC(=O)CSc1nnc(-c2sc3ccccc3c2Cl)o1 | 8.67 | 36.2 |  |
| CC(C)(C)c1ccc(C(=O)/C=C2\NC(=O)CS2)cc1 | 11.8 | > 100 | > 40 |
| O=C(COC(=O)c1ccccc1Br)Nc1ccccc1F |  | > 100 |  |
| COc1ccc(CNCc2cc3c(C(C)(C)C)nn(-c4ccccc4)c3[nH]c2=O)cc1 | 11.4 | 13 | > 40 |
| Cc1cc(C(=O)c2ccc(C(C)(C)C)cc2)c(NC(=O)CCl)s1 | 19.5 | > 100 | 27.2 |
| CC(C)(C)c1ccc(OC(=O)c2ccc3snnc3c2)cc1 | 5.94 | > 100 |  |
| COc1cc(OC)cc(C(=O)Nc2nc(-c3ccccc3)c(-c3ccccc3)o2)c1 | 0.322 | 4.94 | 30.9 |
| O=C(COc1ccc(Cl)cc1)Nc1nnc(-c2ccc3c(c2)CCCC3)o1 | 54.3 | > 100 | > 40 |
| Cc1cc(C(=O)CCl)c(C)n1Cc1ccco1 | 3.34 | 8.28 | 12.1 |
| O=Cc1ccc(O)c2ncccc12 | 0.378 | 0.549 | 7.88 |
| CCOC(=O)c1ccc(N/C=C2\CCCCC2=O)cc1 |  | > 100 |  |
| CCOC(=O)COc1ccc2c(=O)c(-c3ccccc3)coc2c1 | < 0.195 | 0.755 |  |
| Cc1ccc(C(=O)N2CCN(c3ccc(NC(=O)COc4ccccc4C)cc3)CC2)cc1 | 9.58 | > 100 | > 40 |
| COc1cc(CNCCc2c[nH]c3ccccc23)ccc1OCc1ccccc1F | 14 | 21.3 | 15.1 |
| O=C(CCc1nc(-c2cccs2)no1)Nc1cnc2ccccc2c1 |  | > 100 |  |
| CCCOC(=O)c1ccc(NC(=O)c2cnccn2)cc1 | 15 | > 100 |  |
